These results are taken from patent US9849193B2, “Nanoparticles for drug delivery” (University of Louisville Research Foundation, Inc., priority 2013, dated 2017).

This series in a line: Heat-induced release of drug surrogate (alcohol 11 or amine 12) from linkers in methanol, HPLC quantification. The class given is physicochemical. Conditions: for % release after heating (55° C.) at time (h) 0.25 / % release after heating (55° C.) at time (h) 0.5 / % release after heating (55° C.) at time (h) 0.75 / % release after heating (55° C.) at time (h) 1 / % release after heating (55° C.) at time (h) 2 / % release after heating (55° C.) at time (h) 3 / % release after heating (55° C.) at time (h) 24 h / % release at rt, 3.5 h: release of alcohol 11, mean ± SD, n = 3; for % release after heating (55° C.) at time (h) 0.25 / % release after heating (55° C.) at time (h) 0.5 / % release after heating (55° C.) at time (h) 0.75 / % release after heating (55° C.) at time (h) 1 / % release after heating (55° C.) at time (h) 2 / % release after heating (55° C.) at time (h) 3 / % release after heating (55° C.) at time (h) 24 h / Heat-induced release of 11 or 12 (result in words, spans all time columns): methanol ca. 0.01 M; for % release after heating (55° C.) at time (h) 0.25: 0.25 h; for % release after heating (55° C.) at time (h) 0.5: 0.5 h; for % release after heating (55° C.) at time (h) 0.75: 0.75 h; for % release after heating (55° C.) at time (h) 1: 1 h; for % release after heating (55° C.) at time (h) 2: 2 h; for % release after heating (55° C.) at time (h) 3: 3 h; for % release at rt, 3.5 h: room temperature control; for Heat-induced release of 11 or 12 (result in words, spans all time columns): 55° C. up to 24 h and rt 3.5 h. How it is done: Methanol (MeOH) was used as a solvent to provide a protic solvent capable of hydrogen bonding. The amine-containing linker compounds, formed on Boc-deprotection with basic work-up (compounds 4.1-3, 8.1-2, 9, 10), were diluted with MeOH (2 mL, ˜0.01 M). An aliquot was removed to serve as a room temperature control. Heat was applied to the MeOH solutions using an oil bath. The temperature was set at 55° C., and the solutions were heated for a total of 24 h. Aliquots were taken at t=0.25, 0.50, 0.75, 1, 2, 3, and 24 h into the reaction. On sampling, the aliquots were, immediately stored at −5° C. On completion of the experiment, the samples were warmed to room temperature, filtered and dried under reduced pressure (3.5 h duration) and then returned to −5° C. Each sample was then removed individually from the freezer and diluted with 400 μL CH2Cl2 before injecting 50 μL into an HPLC fitted with a normal phase silica column (Waters Nova-Pak HR Silica, 6 μm, 60 Å, 3.9×300 mm prep column; 1% MeOH in CH2Cl2 with 0.1% Et3N). HPLC analysis enabled quantification of released 11 or 12. Schemes 3 and 4 depict the intramolecular cyclization processes to release the drug surrogate (e.g., 11 or 12). […] FIG. 12 graphically illustrates the heat-induced release of alcohol 11 (Table 1). The substrates were heated as methanol solutions (ca. 0.01 M) at 55° C. for the indicated times as described above.

`C=CCNCCCC(=O)OCCc1c2ccccc2cc2ccccc12` [Compound 4.1, 2-(anthracen-9-yl)ethyl 4-(allylamino)butanoate]: the “% release after heating (55° C.) at time (h) 0.25” value (“% release after heating … (h) 0.25” below) is listed as 24.6 ± 3.1%, the “% release after heating (55° C.) at time (h) 0.5” value (“% release after heating … (h) 0.5” below) came out at 29.2 ± 1.7%, the “% release after heating (55° C.) at time (h) 0.75” value (shortened to “% release after heating … (h) 0.75”) is reported as 33.4 ± 2.5% and the “% release after heating (55° C.) at time (h) 1” value (from here on “% release after heating … (h) 1”) is on record as 36.6 ± 2.6%. The “% release after heating (55° C.) at time (h) 2” value is 44.4 ± 3.7%; the “% release after heating (55° C.) at time (h) 3” value (from here on “% release after heating … (h) 3”) is 50.2 ± 4.2%; the “% release after heating (55° C.) at time (h) 24 h” value (from here on “% release after heating … (h) 24 h”) is listed as 94.0 ± 1.8%; the “% release at rt, 3.5 h” value stood at 20.2 ± 3.1%.
Consider `C=CCNCCCCC(=O)OCCc1c2ccccc2cc2ccccc12` [Compound 4.2, 2-(anthracen-9-yl)ethyl 5-(allylamino)pentanoate], for which the “% release after heating … (h) 0.25” value worked out at 20.9 ± 1.9%, the “% release after heating … (h) 0.5” value was 21.6 ± 3.5%, the “% release after heating … (h) 0.75” value is 23.0 ± 3.0% and the “% release after heating … (h) 1” value was found to be 25.0 ± 2.1%. The “% release after heating (55° C.) at time (h) 2” value was 30.5 ± 1.3%; the “% release after heating … (h) 3” value came to 36.5 ± 1.2%; the “% release after heating … (h) 24 h” value came out at 75.7 ± 3.2%; the “% release at rt, 3.5 h” value was 17.0 ± 4.5%.
For the molecule `C=CCNCCCCCC(=O)OCCc1c2ccccc2cc2ccccc12` [Compound 4.3, 2-(anthracen-9-yl)ethyl 6-(allylamino)hexanoate], the “% release after heating … (h) 0.25” value is on record as 2.1 ± 1.6%, the “% release after heating … (h) 0.5” value worked out at 1.8 ± 1.9%, the “% release after heating … (h) 0.75” value was determined as 2.1 ± 2.2% and the “% release after heating … (h) 1” value is recorded as 2.1 ± 1.8%. In addition, the “% release after heating (55° C.) at time (h) 2” value turned out to be 3.1 ± 2.9%; the “% release after heating … (h) 3” value came to 3.6 ± 3.0%; the “% release after heating … (h) 24 h” value is recorded as 10.4 ± 3.8%; the “% release at rt, 3.5 h” value is 1.7 ± 2.0%.
As to `C=CCNCCOC(=O)OCCc1c2ccccc2cc2ccccc12` [Compound 8.1, 2-(allylamino)ethyl(2-(anthracen-9-yl)ethyl) carbonate], the “% release after heating … (h) 0.25” value is 23.5 ± 1.9%, the “% release after heating … (h) 0.5” value is 28.9 ± 1.7%, the “% release after heating … (h) 0.75” value is 32.4 ± 4.0% and the “% release after heating … (h) 1” value stood at 36.7 ± 4.8%. Moreover, the “% release after heating (55° C.) at time (h) 2” value was 48.3 ± 5.7%; the “% release after heating … (h) 3” value is on record as 57.0 ± 6.9%; the “% release after heating … (h) 24 h” value worked out at 68.9 ± 3.0%; the “% release at rt, 3.5 h” value came to 18.8 ± 2.3%.
As for `C=CCNCCCOC(=O)OCCc1c2ccccc2cc2ccccc12` [Compound 8.2, 3-(allylamino)propyl(2-(anthracen-9-yl)ethyl) carbonate], the “% release after heating … (h) 0.25” value was found to be 12.0 ± 0.8%, the “% release after heating … (h) 0.5” value is listed as 14.1 ± 0.7%, the “% release after heating … (h) 0.75” value worked out at 16.4 ± 1.0% and the “% release after heating … (h) 1” value amounted to 18.0 ± 0.7%. Further, the “% release after heating (55° C.) at time (h) 2” value came to 24.8 ± 1.1%; the “% release after heating … (h) 3” value turned out to be 29.0 ± 1.0%; the “% release after heating … (h) 24 h” value is reported as 62.1 ± 5.6%; the “% release at rt, 3.5 h” value was 9.6 ± 1.1%.
For the molecule `C=CCNCCCC(=O)NCCc1c2ccccc2cc2ccccc12` [Compound 9, 4-(allylamino)-N-(2-(anthracen-9-yl)ethyl)butanamide], the “Heat-induced release of 11 or 12 (result in words, spans all time columns)” value was “no reaction”.
On the same count and under the same terms, the result for `C=CCNCCNC(=O)OCCc1c2ccccc2cc2ccccc12` [Compound 10, 2-(anthracen-9-yl)ethyl(2-(allylamino)ethyl)carbamate] reads “no reaction”.
As to `C=CCNCCC(C)(C)CCC(=O)OCCc1c2ccccc2cc2ccccc12` [Compound 20, 2-(anthracen-9-yl)ethyl 6-(allylamino)-4,4-dimethylhexanoate], the “% release after heating … (h) 0.25” value is on record as 2.0 ± 0.1%, the “% release after heating … (h) 0.5” value worked out at 2.2 ± 0.1%, the “% release after heating … (h) 0.75” value was 2.7 ± 0.1% and the “% release after heating … (h) 1” value turned out to be 3.3 ± 0.4%. For the same molecule, the “% release after heating (55° C.) at time (h) 2” value came out at 4.1 ± 0.3%; the “% release after heating … (h) 3” value stood at 5.2 ± 0.8%; the “% release after heating … (h) 24 h” value was found to be 24.7 ± 3.9%; the “% release at rt, 3.5 h” value worked out at 1.8 ± 0.2%.
Turning to `C=CCNCCC(C)(C)COC(=O)OCCc1c2ccccc2cc2ccccc12` [Compound 23, 4-(allylamino)-2,2-dimethylbutyl(2-(anthracen-9-yl)ethyl) carbonate], the “% release after heating … (h) 0.25” value is reported as 1.8 ± 0.4%, the “% release after heating … (h) 0.5” value is listed as 2.3 ± 0.5%, the “% release after heating … (h) 0.75” value is listed as 2.9 ± 0.1% and the “% release after heating … (h) 1” value came out at 4.0 ± 0.3%. Also, the “% release after heating (55° C.) at time (h) 2” value was found to be 5.7 ± 1.0%; the “% release after heating … (h) 3” value is recorded as 7.6 ± 0.3%; the “% release after heating … (h) 24 h” value is 36.6 ± 0.3%; the “% release at rt, 3.5 h” value is reported as 0.7 ± 0.1%.
